Reference: US20080286387A1, “Standardized method for recovering enriched Indian date extract (IDE), properties of IDE and applications thereof” (priority 2007, published 2008)

Tested on: 5-alpha-reductases
Assay: 5-alpha-reductase inhibition
Assay type: biochemical
Settings: at a workable concentration of 9 μg/ml; FIG. 4

CC(C)(C)NC(=O)[C@H]1CC[C@H]2[C@@H]3CC[C@H]4NC(=O)C=C[C@]4(C)[C@H]3CC[C@]12C [Finasteride]
inhibition of 5-alpha-reductase: ≤ 13%
